US7049331B2, “1,2,4-thiadiazole derivatives as melanocortin receptor modulators” (Ortho-McNeil Pharmaceutical, Inc., priority 2001, dated 2006)

Assays:
[1] = molecular target: T1, melanocortin MC-4 receptor (Homo sapiens, UniProt P32245); test: Melanocortin MC-4 Receptor Binding Assay (SPA)
T1 construct: purchased Receptor Biology Inc
Summary of the method: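 Membranes bound to WGA SPA beads were incubated 16 h at 25° C with 40 pM ¹²⁵I-NDP-MSH and test compound (1 mM stock in 30% DMSO-HEPES pH 7.4). Nonspecific binding set with 1 μM NDP-MSH or α-MSH; percent inhibition from bound cpm.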

[2] = tested on: human sebocytes; test: Visual observation of lipid granule formation in sebocytes; type: cell-based
Protocol: Semiconfluent cultures of 3T3 mouse fibroblasts (Swiss Albino mouse, ATCC CCL-92) were treated with mitomycin C (4 μg/ml) for 3 hours, trypsinized and seeded at a density of 2.5×10^5/9.5 cm^2 tissue culture plate in Dulbeccos Minimal Essential Medium (DMEM) containing 10% Colorado Calf Serum, PNC (100U/ml), STM (100 μg/ml), L glutamine (0.3 mg/ml), sodium pyruvate (1 mM) and nonessential amino acids (100 μM). The cells were incubated at 37° C. for 24 hours prior to their use as a feeder layer for sebocytes.
Human sebocytes were isolated from Dermatome shavings of postoperative pieces of human skin at 0.4–0.8 mm depths (this part of the skin was previously shown to be enriched in sebaceous glands). Shavings so obtained were treated with 1% Dispase in Iscoves medium containing 10% serum for 20 min at 37° C. The tissue was then placed in 0.3% trypsin/1% EDTA in Phosphate Buffered Saline (PBS) for 10 minutes at 37° C. Following this incubation the cells were gently scraped from the tissue in Growth medium (GM) containing DMEM/F12 media mixture (3:1), supplemented with 8% heat inactivated FBS, 2% heat inactivated human serum (HS), 1 mM sodium pyruvate, epidermal growth factor (10 ng/ml), insulin (10 μg/ml), hydrocortisone (0.4 μg/ml) and +/−cholera toxin (100 μg/ml), L-glutamine and antibiotics. Cells so obtained were filtered through nylon mesh ([…]), centrifuged at 750 RPM, re-suspended in GM and counted.
Resultant cells from the above isolation procedure were plated on the 3T3 feeder layers at 2×10^5/9.5 cm^2 in growth medium and maintained at 37° C. and 5% CO2 for 3 days (Phase I). Following the initial growth period they were transferred to a transition medium (TM) that consisted of DMEM/F12 media supplemented with 1 mM sodium pyruvate, insulin ([…]), transferrin ([…]) and selenium (5.5 μg/ml) (ITS), 2% heat inactivated FBS and 2% heat inactivated human serum as well as +/−cholera toxin (ch.t.) (100 μg/ml), L-glutamine and antibiotics (Phase II). Three days later the cells were changed to differentiation medium (DM), DMEM/F12 supplemented with ITS, 3,3′,5-triido-L-thyronine sodium (3 nM), 1%(v/v) trace element mix and the choice of differentiation agent i.e. bovine pituitary extract (10 μg/ml). This medium was changed every 3 days (Phase III).
Hormones, mixture of hormones i.e. bovine pituitary extract or compounds to be tested were added to the culture at the beginning of phase III. Two criteria were used to evaluate the effect of these materials on sebaceous cultures: 1) visual observations and 2) evaluation of sebaceous lipid accumulation and synthesis. The evaluation of lipid accumulation completed using the Nile red method. This method relies on visualization of neutral lipids by Nile red and quantitation by reading of fluorescence at 535 nm excitation, 580 nm emission using a plate reader. The lipid synthesis was evaluated by radioactive labeling using ^14C acetate and quantified by Bio Rad Phosphoimager (Molecular Imager, FX) using 4.1 Software.
Quantitation of accumulation/inhibition of neutral lipids in sebocytes was accomplished by Nile red binding assay. Briefly, following exposure of sebocytes to test compounds, the cells were allowed to interact with 1 μM Nile red in Hanks buffered saline solution containing DMSO and Pluronic F127. After 4 hours of incubation, washing and incubation overnight, the fluorescence was read at 535 excitation and 580 emission using a fluorescence plate reader.
Following the procedure described above, select compounds of the present invention were tested for visual and Nile red evaluation of lipid accumulation, with results as listed in Table 9.
Following the procedure described above, select compounds of the present invention were tested for their inhibitory effect on differentiation of human sebocytes. […]

[3] = molecular target: MC5-R (Homo sapiens, UniProt P33032); test: MC5-R binding
MC5-R, sequence (P33032 whole entry): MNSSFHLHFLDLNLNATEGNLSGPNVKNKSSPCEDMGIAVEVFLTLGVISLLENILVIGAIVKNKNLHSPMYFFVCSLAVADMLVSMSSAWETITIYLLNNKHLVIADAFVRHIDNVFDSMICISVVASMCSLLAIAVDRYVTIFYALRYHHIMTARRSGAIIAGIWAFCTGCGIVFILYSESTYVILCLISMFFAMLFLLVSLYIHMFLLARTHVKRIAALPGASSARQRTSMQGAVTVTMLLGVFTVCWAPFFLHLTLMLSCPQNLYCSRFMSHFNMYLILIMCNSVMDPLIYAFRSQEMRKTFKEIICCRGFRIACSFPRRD

[4] = tested on: human sebocytes; test: Nile red evaluation of lipid accumulation in sebocytes; type: cell-based; conditions: for inhibition at 0.4 µM: read-out: % Inh 0.4 μM (lipid accumulation, Nile red); for inhibition at 0.8 µM: read-out: % Inh 0.8 μM (lipid accumulation, Nile red)
Protocol: The cells were incubated at 37° C. for 24 hours prior to their use as a feeder layer for sebocytes. Human sebocytes were isolated from Dermatome shavings of postoperative pieces of human skin at 0.4-0.8 mm depths (this part of the skin was previously shown to be enriched in sebaceous glands). […] This medium was changed every 3 days (Phase III). Hormones, mixture of hormones i.e. bovine pituitary extract or compounds to be tested were added to the culture at the beginning of phase III. […] The evaluation of lipid accumulation completed using the Nile red method. This method relies on visualization of neutral lipids by Nile red and quantitation by reading of fluorescence at 535 nm excitation, 580 nm emission using a plate reader. The lipid synthesis was evaluated by radioactive labeling using ^14C acetate and quantified by Bio Rad Phosphoimager (Molecular Imager, FX) using 4.1 Software. […] Quantitation of accumulation/inhibition of neutral lipids in sebocytes was accomplished by Nile red binding assay. Briefly, following exposure of sebocytes to test compounds, the cells were allowed to interact with 1 μM Nile red in Hanks buffered saline solution containing DMSO and Pluronic F127. After 4 hours of incubation, washing and incubation overnight, the fluorescence was read at 535 excitation and 580 emission using a fluorescence plate reader. […] Following the procedure described above, select compounds of the present invention were tested for visual and Nile red evaluation of lipid accumulation, with results as listed in Table 9.

[5] = tested on: rat adipocytes; conditions: read-out: EC50 lipolytic activity; cited from earlier work
[6] = tested on: isolated human and non-human primate adipocytes; conditions: concentrations as high as 1 μM; cited from earlier work
[7] = tested on: rabbit adipocytes; conditions: read-out: EC50 lipolytic activity; cited from earlier work
[8] = tested on: Male Long-Evans rats, facial nerve compression; test: In vivo Facial Nerve Compression Model; set-up: species or system rat; conditions: test compounds p.o. 20 mg/kg bid, αMSH s.c. 70 ug/each 48 hr
From the text: The ability of test compound to provide neuro-protective or neuro-regenerative effects was investigated in a facial nerve compression model. Facial nerve motor axons arise exclusively from neurons within the pons in a well-defined nucleus. Facial nerve compression results in retrograde reactions proximal to the lesion site and Wallerian degeneration at its distal part, which causes diminished whisker movement on the lesioned side.
Male Long-Evans rats (150–180 g) were anesthetized with 3–5% isoflorane for induction and 2% for maintenance during the surgical procedures. The right facial nerve was exposed and compressed with forceps for 30 sec at its exit from the stylomastoid foramen. The left facial nerve was sham-operated and served as an internal control. […] The following morphological abnormalities associated with the functional deficit were observed:
After recovery from anesthesia, the rats were randomly divided into groups for dosing with vehicle, αMSH or test compound, with 6 animals per group. αMSH (s.c., 70 ug/each 48 hr) was used as a positive control. Test compounds were dosed p.o. at 20 mg/kg bid for 14 days. Restoration of whisker movement was monitored daily after the operation using two criteria:
(1) frequency of whisker movement on the lesioned side relative to the opposite side (sham-operated) which served as the baseline control
(2) semi-quantitative measurements (0 to 4+) on strength of the whisker muscles, characterized based on observation of the percentage of moved whiskers, muscle tone of whisker muscles, and the position of the nose. For all observations, the experimental design was blind to the behavioral observer.
The recovery rate of the whisker movement was expressed as percentage of its own internal control (sham-operated), as listed in Table 8.

T1 sequence (P32245 whole entry): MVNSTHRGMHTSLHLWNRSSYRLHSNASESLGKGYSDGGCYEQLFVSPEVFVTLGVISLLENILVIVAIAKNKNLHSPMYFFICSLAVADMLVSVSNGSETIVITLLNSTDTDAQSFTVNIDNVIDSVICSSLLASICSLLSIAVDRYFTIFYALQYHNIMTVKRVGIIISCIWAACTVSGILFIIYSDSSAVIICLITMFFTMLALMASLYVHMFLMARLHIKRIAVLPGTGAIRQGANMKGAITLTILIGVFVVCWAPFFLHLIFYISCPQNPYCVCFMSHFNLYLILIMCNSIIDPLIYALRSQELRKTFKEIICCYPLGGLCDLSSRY

COc1ccccc1Nc1nc(-c2ccccc2OC)[n+](-c2ccccc2OC)s1 [Compound 76]
IC50 [1]: 332 nM
Visual* 0.4 μM (inhibition of lipid granule formation) [2]: ++ (++ =50%)
Visual* 0.8 μM (inhibition of lipid granule formation) [2]: +++ (+++ = 75%)
IC50 [3]: 317 nM
inhibition at 0.4 µM [4]: 48%
inhibition at 0.8 µM [4]: 88%

COc1ccccc1-c1nc(Nc2ccccc2Cl)s[n+]1-c1ccccc1OC [Compound 80]
IC50 [1]: 378 nM
Visual* 0.4 μM (inhibition of lipid granule formation) [2]: ++ (++ =50%)
Visual* 0.8 μM (inhibition of lipid granule formation) [2]: ++++ (++++ = 100%)
IC50 [3]: 138 nM
inhibition at 0.4 µM [4]: 61%
inhibition at 0.8 µM [4]: 91%

ACTH: melanocortin neuropeptide arising from pro-opiomelanocortin (POMC) (SYSMEHFRWGKPVGKKRRPVKVYPNGAEDESAEAFPLEF; Corticotropin; UniProt P01189 138-176, looked up)
EC50 [5]: 1.34 nM
effect on lipolysis [6]: very little effect on lipolysis
EC50 [7]: 16.4 nM

α-MSH: alpha-melanocyte stimulating hormone peptide, used as a positive control [reference compound]
EC50 [7]: 3.7 nM
Percent Recovery of whisker movement D9 ([8]; D9, % of sham-operated side): 2.0%
Percent Recovery of whisker movement D10 ([8]; D10): 24.6%
Percent Recovery of whisker movement D11 ([8]; D11): 60.1%
Percent Recovery of whisker movement D12 ([8]; D12): 93.8%
Percent Recovery of whisker movement D13 ([8]; D13): 98.1%
Percent Recovery of whisker movement D14 ([8]; D14): 100%
